Measurements: US20240239790A1, “7-Morpholino-1,6-Naphthyridin-5-yl Derivatives and Pharmaceutical Compositions Thereof Useful as DNA-PK Inhibitor” (adMare Therapeutics Society, priority 2021, published 2024)
Where two headings read alike, the source gives them in different places.

Tests used:
[1] = molecular target: T1, DNA-PK (Homo sapiens, UniProt P78527); experiment: DNA-PK Assay for Biochemical Enzymatic Inhibition (ADP Glo Kinase assay); details: DNA-PK enzyme
T1 construct: purchased Invitrogen PR9107A
Outline: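 Human DNA-PK (25 ng) preincubated 15 min with compounds (ten three-fold dilutions) in HEPES pH 7.5, MgCl2, KCl, calf thymus DNA buffer, then substrate 434.4 μM and ATP 64.4 μM (final) for 60 min at room temperature. ADP-Glo luminescence; percent inhibition fitted by four-parameter regression for IC50.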

[2] = Microsomal Stability Assay, mouse liver microsomes; type: in vitro ADME; details: for microsomal CLint at 0.1 uM: male, CD-1, pH 7.4, mouse liver microsomes 0.1 mg/mL, 0.1 uM compound; for Microsomal Stability Mouse % rem. 60 min: mouse liver microsomes
Experimental: Samples were then mixed and centrifuged. Supernatants were used for HPLC-MS/MS analysis. […] Peak areas corresponding to the test compound were recorded.

[3] = system: FaDu cell line; experiment: Prodrug Activation in Hypoxic Stirred Tumour Cell Suspensions; details: 10 μM, 4 hours
[4] = system: pH2AX induction in HCT116 ATM-/- multicellular tumour spheroids; experiment: Prodrug Radiation Sensitization in Multicellular Tumour Spheroids, inhibition of pH2AX induction following radiation; type: cell-based; details: Homo sapiens, HCT-116, 20 Gy
Outline: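 HCT116 and FaDu spheroids (~0.5 mm diameter), ATM-deficient lines included, in MEM/10% FBS/10 mM glucose at 37 °C under 20% vs 5% oxygen with stirring. Prodrugs 10 μM down to 3.5 nM, 20 Gy irradiation. pDNA-PK (ser 2056) or pH2AX (ser 139) scored in formalin-fixed cryosections 1 or 2 h post-radiation.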

[5] = molecular target: T2, DNA-PK phosphorylation at Serine 2056 (Homo sapiens, UniProt P78527); experiment: Cellular Assay for Inhibition of DNA-PK Phosphorylation at Serine 2056 in FaDu cells (sandwich ELISA, neocarzinostatin); type: cell-based; details: pSer2056 DNA-PK
T2 construct: FaDu cells were purchased from ATCC; host or cells: FaDu
Outline: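 FaDu cells pre-treated with compound (0.3% DMSO) for 1 h, then neocarzinostatin 1 μg/mL final added for 2 h to induce DSBs. Protein-normalised lysates read by sandwich ELISA for total and pSer2056 DNA-PK; % inhibition normalised between DMSO and NCS controls, IC50 from variable-slope log(inhibitor) fit.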

[6] = system: pDNA-PK induction in HCT116 tumour spheroids; experiment: Multicellular tumour spheroid + radiation, pDNA-PK (ser2056) inhibition, immunohistochemical endpoint, HCT116; type: cell-based; details: Homo sapiens, 20 Gy, 20% O2
Experimental: Multicellular tumour spheroids determination of compound inhibition of pDNA-PK induction following radiation. Tumour spheroids were grown to approximately 0.5 mm in diameter and irradiated with 20 Gy in combination with inhibitor test compounds to determine their potency. Inhibitor concentration for 50% reduction in pDNA-PK induction (IC50) was determined via immunohistochemical staining in spheroid cryosections taken 2 hours following radiation.
(§1) Spheroid+radiation pDNA-PK. Radiation: 20 Gy. Drug: serial dilution 5 or 10 μM down to 3.5 nM (11 wells). Spheroids: 3-6 spheroids per well (300-500 μm diameter). 20% 02 and 5% CO2. 96 well plate format.
Protocol: pre-incubate 1 hours with drug, irradiate with 20 Gy, post-incubate 2 hours with drug, freeze and cryosection ×3 replicates.
Endpoint: fluorescent immunostin pDNA-PK ser2056 and image on microscope.
Analysis: determine EC50 concentration that decreases pDNA-PK induction by 50% after radiation.
Multicellular tumour spheroids determination of compound inhibition of pDNA-PK induction following radiation. Tumour spheroids were grown to approximately 0.5 mm in diameter and irradiated with 20 Gy in combination with inhibitor test compounds to determine their potency. Inhibitor concentration for 50% reduction in pDNA-PK induction (IC50) was determined via immunohistochemical staining in spheroid cryosections taken 2 hours following radiation. For cell survival endpoint 8 Gy radiation was used and 3 hours following radiation spheroids were dissociated, counted and plated for colony forming endpoint.
as §1, with “format. Endpoint: fluorescent immunostain pDNA-PK ser2056 and image on microscope. Analysis: determine EC50 concentrations that decreases pDNA-PK induction by 50% after irradiation.” for “format.”
Multicellular tumour spheroids were used to determine potency of test compounds in a 3D tissue environment using inhibition of pDNA-PK induction following radiation or cell survival as the endpoint. For the pDNA-PK endpoint HCT116 or FaDU tumour spheroids were grown to approximately 0.5 mm in diameter and irradiated with 20 Gy in combination with inhibitor test compounds to determine their potency. Experiments were carried out in 96 well plates containing 0.7 mls of MEM media containing 10% FBS and 10 mM glucose under 20% O2 & 5% CO2 at 37° C. Following dilution of compounds 1:1000 from DMSO stocks, compounds were serially diluted from 10 μM down to 3.5 nM and 5-10 spheroids added. 96 well plates were constantly stirred to avoid spheroids settling during the course of the experiment. The inhibitor concentration for 50% reduction in pDNA-PK induction (EC50) was determined via immunohistochemical staining in spheroid cryosections taken 2 hours following radiation using anti-pDNA-PK (ser 2056) and fixed immediately in formalin following sectioning. For cell survival endpoint 8 Gy radiation was used and, 3 hours following radiation, spheroids were dissociated, counted and plated for colony forming endpoint. Data presented in the table compound potency as EC50 [μM].

[7] = 5% O2, inner layers, read-out: Prodrug 5% O2 Inner layers EC50
[8] = 5% O2, outer layers, read-out: Prodrug 5% O2 Outer layers EC50
[9] = 20% O2, outer layers, read-out: Prodrug 20% O2 Outer layers EC50
[10] = neocarzinostatin 1 μg/mL, Table 1
[11] = HCT-116, 2 hours following radiation, Example 9 Study 2, read-out: Spheroid Cell line: HCT116 Immunohistochemical endpoint pDNA-PK inhibition EC50
[12] = HCT-116, Spheroid, Cell Line: HCT115 (so in the source), 2 hours following radiation, Example 7, read-out: EC50, Immunohistochemical endpoint, pDNA-PK inhibition
[13] = HCT-116, 2 h, spheroids, Example 8, read-out: Cell line: HCT116 Immunohistochemical endpoint pDNA-PK inhibition EC50

| SMILES | IC50 ([1]; Table 1) [nM] | microsomal CLint at 0.1 uM [2] [µL/min/mg] | Microsomal Stability Mouse % rem. 60 min [2] | Fraction of prodrug converted to active form, Hypoxic 0.2% O2 [3] | Fraction of prodrug converted to active form, Oxic 5% O2 [3] | IC50 ([1]; Table 2) [nM] | IC50 ([5]; Table 2) [nM] | IC50 [5, 10] [nM] | EC50 [6, 11] [nM] | EC50 [6, 12] [nM] | EC50 [6, 13] [nM] | EC50 [4, 7] [nM] | EC50 [4, 8] [nM] | EC50 [4, 9] [nM] |
| --- | --- | --- | --- | --- | --- | --- | --- | --- | --- | --- | --- | --- | --- | --- |
| c1ccc(-c2cnc3cc(N4CCOCC4)nc(O[C@H]4CC[C@@H](n5ccnc5)CC4)c3c2)cc1 [Compound 156, 4-(5-(((1s,4s)-4-(1H-imidazol-1-yl)cyclohexyl)oxy)-3-phenyl-1,6-naphthyridin-7-yl)morpholine] | 10 to 150 | > 116 | E (% remaining = 0-25%) | – | – | – | – | – | – | – | – | – | – | – |
| Cc1noc(C)c1-c1cnc2cc(N3CCOCC3)nc(O[C@H]3CC[C@@H](n4ccnc4)CC3)c2c1 [Compound 157, 4-(5-(((1s,4s)-4-(1H-imidazol-1-yl)cyclohexyl)oxy)-3-(3,5-dimethylisoxazol-4-yl)-1,6-naphthyridin-7-yl)morpholine] | 1 to 10 | > 116 | E (% remaining = 0-25%) | – | – | – | – | 1000 to 10000 | – | – | – | – | – | – |
| NC(=O)N[C@H]1CC[C@@H](Oc2nc(N3CCOCC3)cc3ncccc23)CC1 [Compound 15, 1-((1s,4s)-4-((7-morpholino-1,6-naphthyridin-5-yl)oxy)cyclohexyl)urea] | 1 to 10 | > 116 | E (% remaining = 0-25%) | – | – | – | – | 100 to 1000 | 1000 to 10000 | 1000 to 10000 | 1000 to 10000 | – | – | – |
| O=C(Nc1ccccc1)N[C@H]1CC[C@@H](Oc2nc(N3CCOCC3)cc3ncccc23)CC1 [Compound 150, 1-((1s,4s)-4-((7-Morpholino-1,6-naphthyridin-5-yl)oxy)cyclohexyl)-3-phenylurea] | 0.5 to 1 | > 116 | E (% remaining = 0-25%) | – | – | – | – | 100 to 1000 | 500 to 1000 | 500 to 1000 | 500 to 1000 | – | – | – |
| CC1(C)CN(c2cc3ncccc3c(O[C@H]3CC[C@@H](n4ccnc4)CC3)n2)CC(C)(C)O1 [Compound 12, 4-(5-(((1s,4s)-4-(1H-imidazol-1-yl)cyclohexyl)oxy)-1,6-naphthyridin-7-yl)-2,2,6,6-tetramethylmorpholine] | 10 to 150 | > 116 | E (% remaining = 0-25%) | – | – | – | – | – | – | – | – | – | – | – |
| CN(C)C(=O)Cn1cccc1C(=O)N[C@H]1CC[C@@H](Oc2nc(N3CCOCC3)cc3ncccc23)CC1 [Compound 146, 1-(2-(dimethylamino)-2-oxoethyl)-N-((1s,4s)-4-((7-morpholino-1,6-naphthyridin-5-yl)oxy)cyclohexyl)-1H-pyrrole-2-carboxamide] | 1 to 10 | > 116 | F (% remaining = 25-50%) | – | – | – | – | 1000 to 10000 | 1000 to 10000 | 1000 to 10000 | – | – | – | – |

Continued, in another order:

| IC50 ([1]; Table 1) [nM] | microsomal CLint at 0.1 uM [2] [µL/min/mg] | Microsomal Stability Mouse % rem. 60 min [2] | Fraction of prodrug converted to active form, Hypoxic 0.2% O2 [3] | Fraction of prodrug converted to active form, Oxic 5% O2 [3] | IC50 ([1]; Table 2) [nM] | IC50 ([5]; Table 2) [nM] | IC50 [5, 10] [nM] | EC50 [6, 11] [nM] | EC50 [6, 12] [nM] | EC50 [6, 13] [nM] | SMILES | EC50 [4, 7] [nM] | EC50 [4, 8] [nM] | EC50 [4, 9] [nM] |
| --- | --- | --- | --- | --- | --- | --- | --- | --- | --- | --- | --- | --- | --- | --- |
| – | – | – | A (A is 0.15 to 1) | C (C is 0.02 to 0.05) | 10 to 150 | 10000 to 30000 | – | – | – | – | Cn1c(COc2cnc3cc(N4CCOCC4)nc(O[C@H]4CC[C@@H](Nc5ncccn5)CC4)c3c2)cnc1[N+](=O)[O-] [LFA118, N-[4-[[3-[(3-Methyl-2-nitro-imidazol-4-yl)methoxy]-7-morpholino-1,6-naphthyridin-5-yl]oxy]cyclohexyl]pyrimidin-2-amine] | 10 to 500 | 500 to 1000 | 1000 to 10000 |
| 1 to 10 | > 116 | E (% remaining = 0-25%) | – | – | – | – | < 100 | 500 to 1000 | 500 to 1000 | – | CONC(=O)COc1cnc(N[C@H]2CC[C@@H](Oc3nc(N4CCOCC4)cc4ncccc34)CC2)nc1 [Compound 72, N-Methoxy-2-((2-(((1s,4s)-4-((7-morpholino-1,6-naphthyridin-5-yl)oxy)cyclohexyl)amino)pyrimidin-5-yl)oxy)acetamide] | – | – | – |
| 1 to 10 | > 116 | E (% remaining = 0-25%) | – | – | – | – | 10000 to 30000 | 10000 to 100000 | 10000 to 100000 | 10000 to 100000 | NC(=O)c1cnc2cc(N3CCOCC3)nc(O[C@H]3CC[C@@H](n4ccnc4)CC3)c2c1 [Compound 166, 5-(((1s,4s)-4-(1H-imidazol-1-yl)cyclohexyl)oxy)-7-morpholino-1,6-naphthyridine-3-carboxamide] | – | – | – |
| < 0.5 | > 116 | F (% remaining = 25-50%) | – | – | – | – | < 100 | 10 to 500 | 10 to 500 | – | NC(=O)COc1cnc(N[C@H]2CC[C@@H](Oc3nc(N4CCOCC4)cc4ncccc34)CC2)nc1 [Compound 60, 2-((2-(((1s,4s)-4-((7-Morpholino-1,6-naphthyridin-5-yl)oxy)cyclohexyl)amino)pyrimidin-5-yl)oxy)acetamide] | – | – | – |
| 10 to 150 | > 116 | E (% remaining = 0-25%) | – | – | – | – | 100 to 1000 | – | – | – | Cn1cc(-c2cnc3cc(N4CCOCC4)nc(O[C@H]4CC[C@@H](n5ccnc5)CC4)c3c2)cn1 [Compound 158, 4-(5-(((1s,4s)-4-(1H-imidazol-1-yl)cyclohexyl)oxy)-3-(1-methyl-1H-pyrazol-4-yl)-1,6-naphthyridin-7-yl)morpholine] | – | – | – |
| – | – | – | A (A is 0.15 to 1) | C (C is 0.02 to 0.05) | 10 to 150 | 10000 to 30000 | – | – | – | – | Cn1c(COc2cnc3cc(N4CCOCC4)nc(O[C@H]4CC[C@@H](NC(=O)c5ncccn5)CC4)c3c2)cnc1[N+](=O)[O-] [LFA116, N-[4-[[3-[(3-Methyl-2-nitro-imidazol-4-yl)methoxy]-7-morpholino-1,6-naphthyridin-5-yl]oxy]cyclohexyl]pyrimidine-2-carboxamide] | 10 to 500 | 1000 to 10000 | 1000 to 10000 |
